These results are taken from patent publication US20080269298A1, “Benzimidazol-1-YL-thiophene compounds for the treatment of cancer” (priority 2002, published 2008).

In assay [1] the test system is breast tumor (MCF7) cell line. Nature of the assay: Methylene Blue Growth Inhibition Assay, MCF7. The class given is cell-based. The conditions noted are these: Homo sapiens, 72 h; Cell Line MCF7, 3 days; read-out: MeB IC50. As to the method:
(§1) Normal Human foreskin fibroblasts (HFF) and human colon (HCT116, RKO), lung (H460), prostate (PC3), and breast tumor (MCF7) cell lines were cultured in high glucose DMEM (Life Technologies) containing 10% fetal bovine serum (FBS) at 37° C. in a humidified 10% CO2, 90% air incubator. Cells were harvested using trypsin/EDTA, counted using a haemocytometer, and plated in 100 μl of the appropriate media, at the following densities, in a 96-well tissue culture plate (Falcon 3075): HFF 5,000 cells/well, HCT116 3,000 cells/well, RKO 2,500 cells/well, H460 2,000 cells/well, PC3 8,000 cells/well, MCF7 4,000 cells/well. The next day, compounds were diluted in DMEM containing 100 μg/ml gentamicin, at twice the final required concentration, from 10 mM stock solutions in DMSO. 100μ/well of these dilutions were added to the 100 μl of media currently on the cell plates. Medium containing 0.6% DMSO was added to control wells. Compounds diluted in DMEM were added to all cell lines. The final concentration of DMSO in all wells was 0.3%. Cells were incubated at 37° C., 10% CO2 for 3 days. Medium was removed by aspiration. Cell biomass was estimated by staining cells with […] per well methylene blue (Sigma M9140, 0.5% in 50:50 ethanol:water), and incubation at room temperature for at least 30 minutes. Stain was removed, and the plates rinsed under a gentle stream of water, and air-dried. To release stain from the cells 100 μl of solubilization solution was added (1% N-lauroyl sarcosine, Sodium salt, Sigma L5125, in PBS), and plates were shaken gently for about 30 minutes. Optical density at 620 nm was measured on a microplate reader. Percent inhibition of cell growth was calculated relative to vehicle treated control wells. Concentration of compound that inhibits 50% of cell growth (IC50) was interpolated using nonlinear regression (Levenberg-Marquardt) and the equation, y=Vmax*(1-(x/(K+x)))+Y2, where “K” was equal to the IC50. In Table 1, +=10−>30 uM; ++=1−10 uM: +++=<1 uM.

Assay [2] relates to colon (RKO) tumor cell line. Briefly: Methylene Blue Growth Inhibition Assay, RKO. The following applies: Homo sapiens, 72 h, 3 days, read-out: MeB IC50. The class given is cell-based. The protocol:
as §1

In assay [3] the test system is Normal Human foreskin fibroblasts (HFF). Briefly: Methylene Blue Growth Inhibition Assay, HFF. The class given is cell-based. The conditions noted are these: 72 h, Cell Line HFF, 3 days, read-out: MeB IC50. As to the method: as §1
Assay [4] relates to prostate (PC3) tumor cell line. Briefly: Methylene Blue Growth Inhibition Assay, PC3. The class given is cell-based. The conditions noted are these: Homo sapiens, 72 h; Cell Line PC3, 3 days; read-out: MeB IC50. The protocol: as §1
In assay [5] the test system is lung (H460) tumor cell line. Nature of the assay: Methylene Blue Growth Inhibition Assay, H460. The class given is cell-based. The conditions noted are these: Homo sapiens, NCI-H460, 72 h; Cell Line H460, 3 days; read-out: MeB IC50. The protocol: as §1
Assay [6] relates to colon (HCT116) tumor cell line. Nature of the assay: Methylene Blue Growth Inhibition Assay, HCT116. It counts as cell-based. The conditions noted are these: Homo sapiens, HCT-116, 72 h; Cell Line HCT116, 3 days; read-out: MeB IC50. As to the method:
as §1

Assay [7] addresses T1, PLK1 kinase domain (Homo sapiens, UniProt P53350).
T1 construct: made in house; host or cells: baculovirus-infected T. ni insect cells
Nature of the assay: Assay for Inhibition of PLK1 (SPA enzyme activity). It counts as biochemical. The conditions noted are these: 2 μM ATP, read-out: Ave pIC50 PLK Enzyme Inhibition (converted). The protocol:
All procedures were performed at 4° C. Cells were lysed in so mM HEPES, 200 mM NaCl, so mM imidazole, 5% glycerol; pH 7.5. The homogenate was centrifuged at 14K rpm in a SLA-1500 rotor for 1 hr and the supernatant filtered through a 1.2 micron filter. The supernatant was loaded onto a Nickel chelating Sepharose (Amersham Pharmacia) column and washed with lysis buffer. Protein was eluted using 20%, 30% and 100% buffer B steps where buffer B is 50 mM HEPES, 200 mM NaCl, 300 mM imidazole, 5% glycerol; pH 7.5. Fractions containing PLK were determined by SDS-PAGE. Fractions containing PLK were diluted five-fold with so mM HEPES, 1 mM DTT, 5% glycerol; pH 7.5, then loaded on an SP Sepharose (Amersham Pharmacia) column. After washing the column with so mM HEPES, 1 mM DTT, 5% glycerol; pH 7.5, PLK was step eluted with so mM HEPES, 1 mM DTT, 500 mM NaCl; 5% glycerol; pH 7.5. PLK was concentrated using a 10 kDa molecular weight cutoff membrane and then loaded onto a Superdex 200 gel filtration (Amersham Pharmacia) column equilibrated in 25 mM HEPES, 1 mM DTT, 500 mM NaCl, 5% glycerol; pH 7.5. Fractions containing PLK were determined by SDS-PAGE. PLK was pooled, aliquoted and stored at −80° C. Samples were quality controlled using mass spectrometry, N-terminal sequencing and amino acid analysis.
B. Enzyme activity+/−inhibitors was determined as follows:
Compounds were added to the plate (1 μl in […]). […] Reaction Mix B is prepared as follows at 4° C.: • Reaction Mix B (Enzyme Mix) • 25 mM HEPES, pH 7.2 • 15 mM MgCl2 • 0.15 mg/ml BSA • 2 mM DTT • 2-10 nM PLK1 kinase domain
Reaction Mix A (20 μl) is added per well. Reaction Mix B (20 μl) is added per well. Incubate 1.5 hrs. at RT. The enzymatic reaction is stopped with 175 μl of SPA/EDTA bead mix (29 mM EDTA, 2.5 mg/ml Streptavidin-coated SPA in Standard Dulbecco's PBS (without Mg^2+ and Ca^2+), 60 μM ATP). Plates are sealed spun (after a 1 hr incubation at RT) at 1,000×g for 7 min or settled overnight, then plates counted in Packard TopCount for 30 seconds/well.

T1 sequence (P53350 21-346): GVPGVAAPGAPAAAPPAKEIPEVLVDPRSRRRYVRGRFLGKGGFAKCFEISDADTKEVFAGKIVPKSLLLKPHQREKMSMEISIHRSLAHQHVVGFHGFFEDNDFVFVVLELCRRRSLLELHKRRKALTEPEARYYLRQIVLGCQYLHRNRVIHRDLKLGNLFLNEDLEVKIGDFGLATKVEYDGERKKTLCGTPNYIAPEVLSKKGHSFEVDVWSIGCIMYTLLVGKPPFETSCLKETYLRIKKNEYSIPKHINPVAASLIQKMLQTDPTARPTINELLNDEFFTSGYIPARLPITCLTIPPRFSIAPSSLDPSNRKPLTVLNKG

For the molecule `O=C(O)c1sc(-n2cnc3ccc(Br)cc32)cc1OCc1ccccc1C(F)(F)F` [Example 74, 5-(6-Bromo-1H-benzimidazol-1-yl)-3-{[2-(trifluoromethyl)-benzyl]oxy}thiophene-2-carboxylic acid], the IC50 in assay [1] is over 10 µM; in assay [2] it was over 10 µM; in assay [3], over 10 µM; in assay [4], over 10 µM; in assay [5], 1 to 10 µM; in assay [6], over 10 µM. The IC50 in assay [7] was under 0.1 µM.
For `NC(=O)c1sc(-n2cnc3ccccc32)cc1C#Cc1ccccc1` [Example 129, 5-(1H-Benzimidazol-1-yl)-3-(phenylethynyl)thiophene-2-carboxamide], the IC50 in assay [1], in assay [2], in assay [3], in assay [4], in assay [5] and in assay [6] was over 10 µM each time. Further, the IC50 in assay [7] was 0.1 to 10 µM.
As for `O=C(O)c1sc(-n2cnc3cc(Cl)c(Cl)cc32)cc1OCc1ccoc1` [Example 77, 5-(5,6-Dichloro-1H-benzimidazol-1-yl)-3-(3-furylmethoxy)thiophene-2-carboxylic acid], the IC50 in assay [1], in assay [2], in assay [3], in assay [4], in assay [5] and in assay [6] was over 10 µM throughout. In assay [7], the IC50 is under 0.1 µM.
As to `COc1cc2ncn(-c3cc(OCc4ccccc4Br)c(C(N)=O)s3)c2cc1OC` [Example 65, 3-[(2-Bromobenzyl)oxy]-5-(5,6-dimethoxy-1H-benzimidazol-1-yl)thiophene-2-carboxamide], the IC50 is under 1 µM in assay [1]; under 1 µM in assay [2]; over 10 µM in assay [3]; over 10 µM in assay [4]; under 1 µM in assay [5]; under 1 µM in assay [6]. The IC50 in assay [7] is under 0.1 µM.
Consider `O=C(O)c1sc(-n2cnc3cc(Cl)c(Cl)cc32)cc1OCc1ccsc1` [Example 79], for which the IC50 in assay [1], in assay [2], in assay [3], in assay [4], in assay [5] and in assay [6] was over 10 µM in each case. The IC50 in assay [7] was under 0.1 µM.
As for `COc1cc2ncn(-c3cc(OCc4cccc(N(C)C)c4)c(C(N)=O)s3)c2cc1OC` [Example 90, 5-(5,6-Dimethoxy-1H-benzimidazol-1-yl)-3-{[3-(dimethylamino)benzyl]oxy}thiophene-2-carboxamide], the IC50 in assay [1] is 1 to 10 µM; in assay [2] it was 1 to 10 µM; in assay [3], over 10 µM; in assay [4], over 10 µM; in assay [5], 1 to 10 µM; in assay [6] it was 1 to 10 µM. The IC50 in assay [7] is under 0.1 µM.
Regarding `COc1cc2ncn(-c3cc(OCc4ccccc4C(F)(F)F)c(C(N)=O)s3)c2cc1OCCN1CCN(C)CC1` [Example 136, 5-(5-(Methyloxy)-6-{[2-(4-methyl-1-piperazinyl)ethyl]oxy}-1H-benzimidazol-1-yl)-3-({[2-(trifluoromethyl)phenyl]methyl}oxy)-2-thiophenecarboxamide], the IC50 in assay [1] was under 1 µM; in assay [2] it was under 1 µM; in assay [3], 1 to 10 µM; in assay [4], 1 to 10 µM; in assay [5], under 1 µM; in assay [6] it was under 1 µM. The IC50 in assay [7] is under 0.1 µM.
`NC(=O)c1sc(-n2cnc3ccccc32)cc1OCc1ccccc1[N+](=O)[O-]` [Example 117, 5-(1H-Benzimidazol-1-yl)-3-[(2-nitrobenzyl)oxy]thiophene-2-carboxamide]: the IC50 in assay [1] was under 1 µM; in assay [2], under 1 µM; in assay [3], over 10 µM; in assay [4], 1 to 10 µM; in assay [5], under 1 µM; in assay [6], under 1 µM. Moreover, the IC50 in assay [7] was under 0.1 µM.
As to `CS(=O)(=O)Nc1ccc2ncn(-c3cc(OCc4ccccc4C(F)(F)F)c(C(N)=O)s3)c2c1` [Example 122, 5-{6-[(Methylsulfonyl)amino]-1H-benzimidazol-1-yl}-3-{[2-(trifluoromethyl)benzyl]-oxy}thiophene-2-carboxamide], the IC50 in assay [1] was 1 to 10 µM; in assay [2] it was 1 to 10 µM; in assay [3], over 10 µM; in assay [4] it was over 10 µM; in assay [5], 1 to 10 µM; in assay [6] it was 1 to 10 µM. Also, the IC50 in assay [7] was under 0.1 µM.
For `CN(c1ccccc1)c1cc(-n2cnc3ccccc32)sc1C(N)=O` [Example 131, 5-(1H-Benzimidazol-1-yl)-3-[methyl(phenyl)amino]thiophene-2-carboxamide], the IC50 is 1 to 10 µM in assay [1]; 1 to 10 µM in assay [2]; over 10 µM in assay [3]; over 10 µM in assay [4]; 1 to 10 µM in assay [5]; 1 to 10 µM in assay [6]. The IC50 in assay [7] was 0.1 to 10 µM.
With `COc1ccc(COc2cc(-n3cnc4cc(OC)c(OC)cc43)sc2C(N)=O)cc1` [Example 128, 5-(5,6-Dimethoxy-1H-benzimidazol-1-yl)-3-[(4-methoxybenzyl)oxy]thiophene-2-carboxamide], the IC50 in assay [1] is 1 to 10 µM; in assay [2], 1 to 10 µM; in assay [3], over 10 µM; in assay [4] it was over 10 µM; in assay [5], 1 to 10 µM; in assay [6] it was over 10 µM. In addition, the IC50 in assay [7] was 0.1 to 10 µM.
`COc1cc2ncn(-c3cc(OCc4ccccc4SC)c(C(N)=O)s3)c2cc1OC` [Example 97]: the IC50 in assay [1], in assay [2], in assay [3], in assay [4], in assay [5] and in assay [6] was 1 to 10 µM each time. Further, the IC50 in assay [7] was under 0.1 µM.
`COc1cc2ncn(-c3cc(OCc4ccccc4S(C)(=O)=O)c(C(N)=O)s3)c2cc1OC` [Example 99, 5-(5,6-Dimethoxy-1H-benzimidazol-1-yl)-3-{[2-(methylsulfonyl)benzyl]oxy}thiophene-2-carboxamide]: the IC50 in assay [1] is 1 to 10 µM; in assay [2], 1 to 10 µM; in assay [3], over 10 µM; in assay [4], over 10 µM; in assay [5], 1 to 10 µM; in assay [6] it was 1 to 10 µM. The IC50 in assay [7] was under 0.1 µM.
